# Results taken from ChEMBL document CHEMBL1201862, “PubChem BioAssay data set” (2004).
#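 Grown in 96-well plates, cells were treated for 48 hours with each compound at five concentrations. Insufficient inhibition: endpoint recorded as highest concentration tested. GI50 marks 50% less growth.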 The source made the active and inactive calls. Rule as the data show it: active = GI50 up to about 1.1 µM and inactive = higher.
# Experiments:
# Assay in all cases: NCI tumour cell line growth inhibition, 48 h
# [1] = tested on: 786-0
# [2] = tested on: A498
# [3] = tested on: A549
# [4] = tested on: ACHN
# [5] = tested on: CAKI-1
# [6] = tested on: COLO 205
# [7] = tested on: DU-145
# [8] = tested on: EKVX
# [9] = tested on: HCC 2998
# [10] = tested on: HCT-15
# [11] = tested on: HOP-62
# [12] = tested on: HOP-92
# [13] = tested on: HT-29
# [14] = tested on: Hs-578T
# [15] = tested on: IGROV-1
# [16] = tested on: K562
# [17] = tested on: KM12
# [18] = tested on: LOX IMVI
# [19] = tested on: M14
# [20] = tested on: MCF7
# [21] = tested on: MDA-MB-231
# [22] = tested on: MDA-MB-435
# [23] = tested on: MDA-N
# [24] = tested on: MOLT-4
# [25] = tested on: Malme-3M
# [26] = tested on: NCI-H226
# [27] = tested on: NCI-H23
# [28] = tested on: NCI-H460
# [29] = tested on: NCI-H522
# [30] = tested on: NCI/ADR-RES
# [31] = tested on: OVCAR-3
# [32] = tested on: OVCAR-4
# [33] = tested on: OVCAR-5
# [34] = tested on: OVCAR-8
# [35] = tested on: PC-3
# [36] = tested on: RPMI-8226
# [37] = tested on: RXF 393
# [38] = tested on: SF-268
# [39] = tested on: SF-295
# [40] = tested on: SF-539
# [41] = tested on: SK-MEL-28
# [42] = tested on: SK-MEL-2
# [43] = tested on: SK-MEL-5
# [44] = tested on: SK-OV-3
# [45] = tested on: SNB-19
# [46] = tested on: SNB-75
# [47] = tested on: SR
# [48] = tested on: SW-620
# [49] = tested on: T47D
# [50] = tested on: TK-10
# [51] = tested on: U-251
# [52] = tested on: UACC-257
# [53] = tested on: UACC-62
# [54] = tested on: UO-31
# [55] = tested on: BT-549
# [56] = tested on: CCRF-CEM
# [57] = tested on: HCT-116
# [58] = tested on: HL-60
# [59] = tested on: SN12C
smiles,measurement,setting,value
CCC1=CC(OCc2ccccc2)C(CCN(Cc2ccccc2)C(=O)OCc2ccccc2)C1 (centres undefined),GI50,[1],19.3 µM (inactive)
same,GI50,[2],16 µM (inactive)
same,GI50,[3],15.5 µM (inactive)
same,GI50,[4],15.3 µM (inactive)
same,GI50,[5],14.7 µM (inactive)
same,GI50,[6],20.8 µM (inactive)
same,GI50,[7],16.4 µM (inactive)
same,GI50,[8],16.1 µM (inactive)
same,GI50,[9],16.5 µM (inactive)
same,GI50,[10],13.6 µM
same,GI50,[11],16.5 µM (inactive)
same,GI50,[12],13.5 µM (inactive)
same,GI50,[13],17.9 µM (inactive)
same,GI50,[14],11.5 µM (inactive)
same,GI50,[15],15.6 µM (inactive)
same,GI50,[16],11 µM (inactive)
same,GI50,[17],15.6 µM (inactive)
same,GI50,[18],14.9 µM (inactive)
same,GI50,[19],13.7 µM (inactive)
same,GI50,[20],16.1 µM (inactive)
same,GI50,[21],18.5 µM (inactive)
same,GI50,[22],17.1 µM (inactive)
same,GI50,[23],30.4 µM (inactive)
same,GI50,[24],10.2 µM (inactive)
same,GI50,[25],15.6 µM (inactive)
same,GI50,[26],15.7 µM (inactive)
same,GI50,[27],14.9 µM (inactive)
same,GI50,[28],15.3 µM (inactive)
same,GI50,[29],11.7 µM (inactive)
same,GI50,[30],15.9 µM (inactive)
same,GI50,[31],14.2 µM (inactive)
same,GI50,[32],13.7 µM (inactive)
same,GI50,[33],13.5 µM (inactive)
same,GI50,[34],17.5 µM (inactive)
same,GI50,[35],14.3 µM (inactive)
same,GI50,[36],8.59 µM (inactive)
same,GI50,[37],3.5 µM (inactive)
same,GI50,[38],15.6 µM (inactive)
same,GI50,[39],14.8 µM (inactive)
same,GI50,[40],20.6 µM (inactive)
same,GI50,[41],20.7 µM (inactive)
same,GI50,[42],20.2 µM (inactive)
same,GI50,[43],15.4 µM (inactive)
same,GI50,[44],20 µM (inactive)
same,GI50,[45],14.8 µM (inactive)
same,GI50,[46],10.3 µM (inactive)
same,GI50,[47],17.3 µM (inactive)
same,GI50,[48],18.4 µM (inactive)
same,GI50,[49],6.01 µM (inactive)
same,GI50,[50],16.5 µM (inactive)
same,GI50,[51],19.8 µM (inactive)
same,GI50,[52],13.9 µM (inactive)
same,GI50,[53],10.9 µM (inactive)
same,GI50,[54],14.6 µM (inactive)
CCOC(=O)c1[nH]c2cccc3c2c1CC[C@H](NC(=O)C(F)(F)F)C3=O,GI50,[1],31.2 µM (inactive)
same,GI50,[2],43.7 µM (inactive)
same,GI50,[3],28.8 µM (inactive)
same,GI50,[4],< 0.01 µM (active)
same,GI50,[55],40.4 µM (inactive)
same,GI50,[5],13.9 µM (inactive)
same,GI50,[56],> 100 µM (inactive)
same,GI50,[6],> 100 µM (inactive)
same,GI50,[7],> 100 µM (inactive)
same,GI50,[8],< 0.01 µM (active)
same,GI50,[9],> 100 µM (inactive)
same,GI50,[57],35.6 µM (inactive)
same,GI50,[10],> 100 µM
same,GI50,[58],> 100 µM (inactive)
same,GI50,[11],24 µM (inactive)
same,GI50,[12],22.6 µM (inactive)
same,GI50,[13],> 100 µM (inactive)
same,GI50,[14],19.5 µM (inactive)
same,GI50,[15],75.5 µM (inactive)
same,GI50,[16],45.8 µM (inactive)
same,GI50,[17],61.8 µM (inactive)
same,GI50,[18],78 µM (inactive)
same,GI50,[19],95.5 µM (inactive)
same,GI50,[20],73.1 µM (inactive)
same,GI50,[21],> 100 µM (inactive)
same,GI50,[22],45.1 µM (inactive)
same,GI50,[23],34.5 µM (inactive)
same,GI50,[24],> 100 µM (inactive)
same,GI50,[25],> 100 µM (inactive)
same,GI50,[26],> 100 µM (inactive)
same,GI50,[27],70.6 µM (inactive)
same,GI50,[28],53.6 µM (inactive)
same,GI50,[30],54 µM (inactive)
same,GI50,[31],> 100 µM (inactive)
same,GI50,[32],24.7 µM (inactive)
same,GI50,[33],> 100 µM (inactive)
same,GI50,[34],19.7 µM (inactive)
same,GI50,[35],64.6 µM (inactive)
same,GI50,[36],> 100 µM (inactive)
same,GI50,[38],37.1 µM (inactive)
same,GI50,[39],22.3 µM (inactive)
same,GI50,[40],38.1 µM (inactive)
same,GI50,[41],< 0.01 µM (active)
same,GI50,[42],20 µM (inactive)
same,GI50,[43],22.5 µM (inactive)
same,GI50,[59],40.3 µM (inactive)
same,GI50,[45],15.8 µM (inactive)
same,GI50,[46],24.3 µM (inactive)
same,GI50,[47],> 100 µM (inactive)
same,GI50,[48],76.7 µM (inactive)
same,GI50,[50],46 µM (inactive)
same,GI50,[51],22.5 µM (inactive)
same,GI50,[52],76.6 µM (inactive)
same,GI50,[54],> 100 µM (inactive)
C=CC1(c2ccc3ccccc3c2)OCC(CC)O1 (centres undefined),GI50,[1],85.9 µM (inactive)
same,GI50,[3],47.9 µM (inactive)
same,GI50,[4],66.1 µM (inactive)
same,GI50,[56],29.6 µM (inactive)
same,GI50,[6],36.1 µM (inactive)
same,GI50,[7],> 100 µM (inactive)
same,GI50,[8],25.1 µM (inactive)
same,GI50,[9],94.2 µM (inactive)
same,GI50,[57],40.9 µM (inactive)
same,GI50,[10],45.6 µM
same,GI50,[58],4.37 µM (inactive)
same,GI50,[11],1.21 µM (inactive)
same,GI50,[12],36.7 µM (inactive)
same,GI50,[13],29.6 µM (inactive)
same,GI50,[14],22.4 µM (inactive)
same,GI50,[15],33.9 µM (inactive)
same,GI50,[16],13.9 µM (inactive)
same,GI50,[17],44.1 µM (inactive)
same,GI50,[18],21.8 µM (inactive)
same,GI50,[19],61.1 µM (inactive)
same,GI50,[20],55 µM (inactive)
same,GI50,[21],0.207 µM (active)
same,GI50,[22],63.4 µM (inactive)
same,GI50,[23],24.8 µM (inactive)
same,GI50,[24],25.6 µM (inactive)
same,GI50,[25],30.5 µM (inactive)
same,GI50,[26],25.5 µM (inactive)
same,GI50,[27],32.3 µM (inactive)
same,GI50,[28],48.2 µM (inactive)
same,GI50,[29],40.6 µM (inactive)
same,GI50,[30],> 100 µM (inactive)
same,GI50,[31],47 µM (inactive)
same,GI50,[32],55.6 µM (inactive)
same,GI50,[33],48.9 µM (inactive)
same,GI50,[34],> 100 µM (inactive)
same,GI50,[35],28 µM (inactive)
same,GI50,[36],46.3 µM (inactive)
same,GI50,[37],53.8 µM (inactive)
same,GI50,[38],71.6 µM (inactive)
same,GI50,[39],61.5 µM (inactive)
same,GI50,[41],> 100 µM (inactive)
same,GI50,[42],15.6 µM (inactive)
same,GI50,[43],47 µM (inactive)
same,GI50,[44],> 100 µM (inactive)
same,GI50,[59],36.7 µM (inactive)
same,GI50,[45],94 µM (inactive)
same,GI50,[46],30 µM (inactive)
same,GI50,[47],19.8 µM (inactive)
same,GI50,[48],46.2 µM (inactive)
same,GI50,[49],35 µM (inactive)
same,GI50,[50],> 100 µM (inactive)
same,GI50,[51],57 µM (inactive)
same,GI50,[52],60.4 µM (inactive)
same,GI50,[53],13.6 µM (inactive)
same,GI50,[54],63.5 µM (inactive)
n1onc2c1NC1Nc3nonc3NC1N2 (centres undefined),GI50,[1],> 100 µM (inactive)
same,GI50,[2],> 100 µM (inactive)
same,GI50,[3],> 100 µM (inactive)
same,GI50,[4],> 100 µM (inactive)
same,GI50,[5],> 100 µM (inactive)
same,GI50,[56],> 100 µM (inactive)
same,GI50,[6],> 100 µM (inactive)
same,GI50,[7],> 100 µM (inactive)
same,GI50,[8],> 100 µM (inactive)
same,GI50,[9],> 100 µM (inactive)
same,GI50,[57],> 100 µM (inactive)
same,GI50,[10],> 100 µM
same,GI50,[58],> 100 µM (inactive)
same,GI50,[11],> 100 µM (inactive)
same,GI50,[12],> 100 µM (inactive)
same,GI50,[13],> 100 µM (inactive)
same,GI50,[14],> 100 µM (inactive)
same,GI50,[15],> 100 µM (inactive)
same,GI50,[16],> 100 µM (inactive)
same,GI50,[17],> 100 µM (inactive)
same,GI50,[18],> 100 µM (inactive)
same,GI50,[19],> 100 µM (inactive)
same,GI50,[20],> 100 µM (inactive)
same,GI50,[22],> 100 µM (inactive)
same,GI50,[23],> 100 µM (inactive)
same,GI50,[24],> 100 µM (inactive)
same,GI50,[26],> 100 µM (inactive)
same,GI50,[27],> 100 µM (inactive)
same,GI50,[28],> 100 µM (inactive)
same,GI50,[29],> 100 µM (inactive)
same,GI50,[30],> 100 µM (inactive)
same,GI50,[31],> 100 µM (inactive)
same,GI50,[32],> 100 µM (inactive)
same,GI50,[33],> 100 µM (inactive)
same,GI50,[34],> 100 µM (inactive)
same,GI50,[35],> 100 µM (inactive)
same,GI50,[36],> 100 µM (inactive)
same,GI50,[38],> 100 µM (inactive)
same,GI50,[39],> 100 µM (inactive)
same,GI50,[40],> 100 µM (inactive)
same,GI50,[41],> 100 µM (inactive)
same,GI50,[43],> 100 µM (inactive)
same,GI50,[44],> 100 µM (inactive)
same,GI50,[59],> 100 µM (inactive)
same,GI50,[45],27.7 µM (inactive)
same,GI50,[46],> 100 µM (inactive)
same,GI50,[48],> 100 µM (inactive)
same,GI50,[49],> 100 µM (inactive)
same,GI50,[50],> 100 µM (inactive)
same,GI50,[51],> 100 µM (inactive)
same,GI50,[54],> 100 µM (inactive)
